Laboratory results reported in article PMC9030166, “Natural Phaeosphaeride A Derivatives Overcome Drug Resistance of Tumor Cells and Modulate Signaling Pathways” (Pharmaceuticals, 2022).

Columns and labels:
Jurkat = experiment: MTT cytotoxicity, Jurkat acute T-cell leukemia cells; assay type: cell-based; conditions: Homo sapiens, suspension culture, 48 h
Description: (§1) Cell cultures used in the work: adhesive cultures HBL-100 cells (cells of a normal mammary gland epithelium, immortalized by the SV40 virus and acquired tumorigenicity); MCF-7 breast cancer cells; PC-3 prostate adenocarcinoma cells; HCT-116 colorectal cancer cells; non-small cell lung cancer cells A549; human embryonic kidney cells HEK293; suspension cultures (NCI-H929 and RPMI8226 multiple myeloma cells), K562 chronic myeloid leukemia cells; THP-1 acute monocytic leukemia cells; and Jurkat acute T-cell leukemia cells. We also used several primary cultures of soft tissue sarcomas at 3–4passeges, kindly provided by T.I. Fetisov (The Ethics Committee of N.N. Blokhin NMRCO, protocol code 18-28-09095 and date of approval 28 September 2018).
(§2) Modifications of cell lines: K562/i-S9 is a clone obtained after transfection of K562 cells with the ABCB1 (MDR1) gene-encoding P-glycoprotein [36]. Cells HBL-100/Dox and K562/i-S9_Dox are cells obtained by long-term selection with increasing concentrations of doxorubicin (Sigma-Aldrich, St. Louis, MO, USA) from HBL-100 and K562/i-S9 cells, respectively. MCF-7, A594 cells, and primary cultures of soft tissue sarcomas were cultured in DMEM medium (PanEko, Russia), PC-3 and HCT-116 cells and all suspension cultures in RPMI1640 medium (PanEko, Russia) supplemented with 10% fetal bovine serum (GE Healthcare LifeSciences, USA), and gentamicin at a concentration of 40 μg/mL at 37 °C and 5% CO2.
(§3) Cells MCF-7, PC-3, A549, and HCT-116, and primary cultures of STSwere seeded in 96-well plates, 6 × 10^3 cells per well in 90 μL of culture medium. Suspension cultures were seeded at a concentration of 25 × 10^3 cells per well in 135 μL of medium. The test substances were dissolved in DMSO (Applichem, Council Bluffs, IA, USA) until a concentration of 1 × 10^−^2 M was obtained; for the subsequent dilution of the substances, a serum-free culture medium was used. The next day, for adhesive cultures, and on the same day, for suspension cultures, substances were added to the plates in a volume of 10 μL (adhesive cultures) and 15 μL (suspension cultures) per well at various concentrations; each concentration was added in 3–4 repetitions. The cells were cultured in the presence of substances for 48 h. Then, MTT reagent (PanEko, Moscow, Russia) was added to the wells at a concentration of 5 mg/mL in a volume of 20 μL per well. After 1.5–2 h, the medium with the reagent was removed, and the precipitate of the crystals of formazan was dissolved in 60 μL of DMSO. The optical density was determined using a Multiskan FC spectrophotometer (Thermo Scientific, Waltham, MA, USA) at a wavelength of 540 nm.
(§4) Based on the results of the experiments, a schedule was plotted of the dependence of the percentage of surviving cells (from control) on the concentration of the compound, and the sought concentration IC50 was calculated. The experiments were carried out in 3–4 times.

HEK293 = experiment: MTT cytotoxicity, human embryonic kidney cells HEK293; assay type: cell-based; conditions: 48 h
Description: as §1, §3, §4

p70S6K (pThr389/412) = experiment: MILLIPLEX MAP 9-Plex, p70S6K active form in A431 lysates; assay type: cell-based, human; conditions: A431 cell lysates, 10 μM, 1 h, M ± mx; control 39.9 ± 7.2
Description: (§5) We used the MILLIPLEX MAP Multi-Pathway Magnetic Bead 9-Plex-Cell Signaling Multiplex Assay, which allows the simultaneous detection of nine phosphorylated proteins that are markers of the main intracellular signaling pathways (phosphorylation site is indicated in parentheses), a universal transcription factor that controls the expression of immune response genes; apoptosis and cell cycle NFκB (pS536); cAMP-dependent transcription factor (CREB (pS133); mitogen-activated kinase p38 (pT180/pY182); stress-activated protein kinase JNK (pT183/pY185); ribosomal […]; transcription factors STAT3 (pS727) and STAT5A/B (pY694/699); protein kinase B (Akt) (pS473); and kinase regulated by extracellular signals ERK1/2 (pT185/pY187).
(§6) The effect of various concentrations of PPA derivatives on the cell culture was studied using xCelligence RTCA equipment (AceaBioscience, San Diego, CA, USA). The concentration closest to the IC50 (10 μM) was chosen as the experimental concentration. The selected concentration of phaeosphaeride A derivatives allows for the assessment of the early effect of compounds on cells and compares their effectiveness. In this experiment, the signaling pathways Akt (pSer473), p70S6K (pThr412), NFkB (p65-pSer536), and CREB (pSer133) were not activated (Table 8). The stress-activated signaling pathways ERK/MAP kinase 1/2 (pThr185/pTyr187), JNK (pThr183/pTyr185), and p38 (pThr180/pTyr182) were activated for these compounds.
(§7) We used a MILLIPLEX MAP Multi-Pathway Magnetic Bead 9-Plex-Cell Signaling Multiplex Assay kit (Merck/Millipore), according to the manufacturer’s protocol. A431 cells were cultured in DMEM with 10% FBS in 24-well plates. Compounds were added to the subconfluent cells at a concentration of 10 μM in DMEM medium for 1 h. Each compound was added in 5 experimental repeats. Cell lysates were prepared with lysis buffer (Millipore) with protease inhibitors (Complete, Roche); the protein concentration in the lysates was determined by the Lowry method. In samples equalized in protein concentration, the active forms of kinase cascades were determined using a Bio-Plex 200 fluorescent analyzer (Bio-Rad).

[1] = tested on: CMT № 1 (Extraskeletal Ewing’s Sarcoma); experiment: MTT cytotoxicity, primary culture of soft tissue sarcoma CMT № 1; assay type: cell-based; conditions: Homo sapiens, 48 h
Description: It is believed that such cultures have a molecular profile that corresponds more with cells from the human body, in comparison with that of stable cultures of tumor cells (Table 3).
as §1, §2
as §3, with “Then, MTT reagent (PanEko, Moscow, Russia) was added to the wells at a concentration of 5 mg/mL in a volume of 20 μL per well. After 1.5–2 h, the medium with the reagent was removed, and the precipitate of the crystals of formazan was dissolved in 60 μL of DMSO.” left out
Based on the results of the experiments, a schedule was plotted of the dependence of the percentage of surviving cells (from control) on the concentration of the compound, and the sought concentration IC50 was calculated. […]

MCF-7 = experiment: MTT cytotoxicity, MCF-7 breast cancer cells; assay type: cell-based; conditions: Homo sapiens, MCF7, adhesive tumor culture, 48 h
Description: as §1, §2, §3, §4

RPMI8226 = experiment: MTT cytotoxicity, RPMI8226 multiple myeloma cells; assay type: cell-based; conditions: Homo sapiens, RPMI-8226, suspension culture, 48 h
Description: as §1, §2, §3, §4

[2] = tested on: ERK 1/2 (pThr185/pTyr187); experiment: MILLIPLEX MAP 9-Plex, ERK 1/2 active form in A431 lysates; assay type: cell-based, human; conditions: 10 μM; for ERK ½ (pThr185/pTyr187) fluorescence intensity: A431 cell lysates, 1 h, M ± mx, control 839.7 ± 248.9; for activation of signaling pathway ERK/MAP kinase 1/2 (pThr185/pTyr187), in words: A431 cells
Description: as §5, §6, §7

HBL-100/Dox = experiment: MTT cytotoxicity, resistant HBL-100/Dox cells; assay type: cell-based, human; conditions: for IC50: Homo sapiens, HBL-100, resistant version, MTT, 48 h; for resistance of HBL-100/Dox cells relative to HBL-100: ratio of IC50 values, Table 5
Description: At the next stage, the cytotoxic activity of compounds 1, 2, and 9 (Scheme 2) was investigated on several pairs of cell lines that differ in the expression of P-gp and the method by which they were obtained. […] K562/i-S9_Dox cells were obtained from K562/i-S9 by selection with low concentrations of doxorubicin to increase P-gp expression.
as §2, §3
The experiments were carried out in 3–4 times.

NCI-H929 = experiment: MTT cytotoxicity, NCI-H929 multiple myeloma cells; assay type: cell-based; conditions: Homo sapiens, suspension culture, 48 h
Description: as §1, §2, §3, §4

| Structure (SMILES) | activation of signaling pathway ERK/MAP kinase 1/2 (pThr185/pTyr187), in words [2] | IC50 (Jurkat) | IC50 (HEK293) | p70S6K (pThr389/412) fluorescence intensity (p70S6K (pThr389/412)) | IC50 [1] | IC50 (MCF-7) | IC50 (RPMI8226) | ERK ½ (pThr185/pTyr187) fluorescence intensity [2] | IC50 (HBL-100/Dox) | resistance of HBL-100/Dox cells relative to HBL-100 (HBL-100/Dox) | IC50 (NCI-H929) |
| --- | --- | --- | --- | --- | --- | --- | --- | --- | --- | --- | --- |
| C=C1C2=C(C(=O)N1OC)[C@@H](N(CC)CCO)[C@@](C)(O)[C@H](CCCCC)O2 [Compound 9, (2S,3R,4R)-4-[ethyl(2-hydroxyethyl)amino]-3-hydroxy-6-methoxy-3-methyl-7-methylene-2-pentyl-3,4,6,7-tetrahydropyrano[2,3-c]pyrrol-5(2H)-one] | – | 1300 ± 400 nM | 3.8 ± 0.4 µM | 38.8 ± 7.4 rel. units | 2900 ± 1100 nM | 2.9 ± 1 µM | 1800 ± 200 nM | 3276.9 ± 700.0 *↑ rel. units | 8.4 ± 0.4 µM | tendency towards a slightly higher resistance | 600 ± 200 nM |
| C=C1C2=C(C(=O)N1OC)[C@@H](N1CCCC1)[C@@](C)(O)[C@H](CCCCC)O2 [Compound 1] | – | 1500 ± 400 nM | 5.1 ± 0.7 µM | 51.7 ± 4.8 rel. units | 2600 ± 1100 nM | 3.9 ± 0.8 µM | 1600 ± 300 nM | 4650.1 ± 509.0 *↑ rel. units | 7.6 ± 0.6 µM | no difference in resistance | 700 ± 200 nM |

Now from value to molecule, other results behind:

| activation of signaling pathway ERK/MAP kinase 1/2 (pThr185/pTyr187), in words [2] | Structure (SMILES) | IC50 (Jurkat) | IC50 (HEK293) | p70S6K (pThr389/412) fluorescence intensity (p70S6K (pThr389/412)) | IC50 [1] | IC50 (MCF-7) | IC50 (RPMI8226) | ERK ½ (pThr185/pTyr187) fluorescence intensity [2] | IC50 (HBL-100/Dox) | resistance of HBL-100/Dox cells relative to HBL-100 (HBL-100/Dox) | IC50 (NCI-H929) |
| --- | --- | --- | --- | --- | --- | --- | --- | --- | --- | --- | --- |
| maximum degree of activation | C=C1C2=C(C(=O)N1OC)[C@@H](N(C)C)[C@@](C)(O)[C@H](CCCCC)O2 [Compound 2, (2S,3R,4R)-4-(dimethylamino)-3-hydroxy-6-methoxy-3-methyl-7-methylene-2-pentyl-3,4,6,7-tetrahydropyrano[2,3-c]pyrrol-5(2H)-one] | 1100 ± 100 nM | 4.2 ± 0.3 µM | 56.9 ± 9.9 rel. units | 1600 ± 700 nM | 3 ± 0.8 µM | 1600 ± 500 nM | 5074.6 ± 770.1 *↑ rel. units | 6.6 ± 1.2 µM | no difference in resistance | 500 ± 100 nM |
| only slightly activated | CCCCC[C@@H]1OC2=C(C(=O)N(OC)/C2=C\n2cnnc2)C(n2cnnc2)[C@@]1(C)O (some centres unmarked) [Compound 10] | 94000 ± 22600 nM | 41 ± 2.1 µM | 53.4 ± 4.0 rel. units | – | 49 ± 5.3 µM | 51000 ± 200 nM | 1864.9 ± 149.5 *↑ rel. units | – | – | 5600 ± 700 nM |
| only slightly activated | C=C1C2=C(C(=O)N1OC)[C@@H](N(CCCC)CCCC)[C@@](C)(O)[C@H](CCCCC)O2 [Compound 5, (2S,3R,4R)-4-(dibutylamino)-3-hydroxy-6-methoxy-3-methyl-7-methylene-2-pentyl-3,4,6,7-tetrahydropyrano[2,3-c]pyrrol-5(2H)-one] | 3700 ± 200 nM | 8.2 ± 0.9 µM | 70.6 ± 9.2 *↑ rel. units | – | 7.4 ± 0.5 µM | 6300 ± 300 nM | 1880.4 ± 81.7 *↑ rel. units | – | – | 2900 ± 300 nM |
